Tests used:
Caco-2 = experiment: Permeability coefficient in Caco-2 cell line monolayers was tested; type: functional, Homo sapiens
Rattus norvegicus = organism: Rattus norvegicus; experiment: Half-life in vitro in rat plasma; No detectable degradation over 2 hr; no detectable degradation over 2 hours; type: ADME
[1] = Half-life in vitro in rat plasma; type: ADME
[2] = Half-life in vitro in pig liver; type: ADME, tissue-based, Sus scrofa

| SMILES | Pc (Caco-2) | T1/2 (Rattus norvegicus) | half-life [1] | half-life [2] |
| --- | --- | --- | --- | --- |
| N=C(N)NCc1ccccc1 | 2.24 ×10⁻⁶ cm/s | Stable |  |  |
| CC(C)(C)C(=O)OCOC(=O)/N=C(/NCc1ccccc1)NC(=O)OCOC(=O)C(C)(C)C | 3.69 ×10⁻⁶ cm/s |  | 1.12 min |  |
| NC(=O)CCCCCCN=C(N)N |  |  |  | < 5 min |
| O=C(/N=C(/NCc1ccccc1)NC(=O)OCc1ccccc1)OCc1ccccc1 | 0.51 ×10⁻⁶ cm/s |  | 12.5 min |  |
| O=C(Cc1ccccc1)OCOC(=O)/N=C(/NCc1ccccc1)NC(=O)OCOC(=O)Cc1ccccc1 | 8.55 ×10⁻⁶ cm/s |  | 0.13 min |  |
| O=C(/N=C(/NCc1ccccc1)NC(=O)Oc1ccccc1)Oc1ccccc1 | 6.45 ×10⁻⁶ cm/s |  | 0.46 min |  |
